Assay results as given in patent publication US20080069795A1, “Amelioration of Drug-Induced Toxicity” (The John Hopkins University, priority 2004, published 2008).

Tests used:
mice kidneys = assay: Histological examination, semi-quantitative renal tubular injury score after cisplatin; type: in vivo, mouse; details: 72 hr after cisplatin 40 mg/kg, scale 0-4
Protocol: (§1) Cisplatin (cis-diammineplatinum II dichloride, Sigma-Aldrich, St.Louis, Mo.) was dissolved in 0.9% of saline at a concentration of 1 mg/ml. Mice were given a single i.p. injection either with cisplatin (40 mg/kg body weight) or with equal volume of saline. […] For kidney T cell immunohistochemical staining, three wild type mice in each group were sacrificed at 1 hr, 6 hr, 12 hr, 24 hr or 72 hr after cisplatin injection. All nu/nu or knockout mice and their littermates were sacrificed at 24 hr or 72 hr after the cisplatin administration for histology or for kidney cytokine array. All collected mice kidneys were either fixed in 10% buffered formalin for histology/immunohistochemistry, or snap frozen with liquid nitrogen for tissue cytokine array.
Formalin-fixed paraffin-embedded sections of mice kidneys tissues were cut and stained with hematoxylin and eosin (H&E). Renal tubular injury was assessed using a semi-quantitative scale. A pathologist blinded to the experiments scored the degrees of tubular injury. The magnitude of tubular epithelial cell loss, necrosis, intra-tubular debris and tubular cast formation was scored into six levels based on the percentage of affected tubules in a high power field (HPF) under light microscope. (0: none; 0.5: <10%; 1: 10 to 25%; 2: 25 to 50%; 3: 50 to 75%; 4: >75%).

[1] = tested on: wild type, nu/nu, CD4-/- and CD8-/- mice; assay: Survival of mice after a single i.p. dose of cisplatin; type: in vivo, mouse; details: for survival rate: cisplatin 40 mg/kg i.p. single dose; for survival rate / survival: 72 hr
Protocol: All animal study protocols have been reviewed and approved by the Animal Care and Use Committee of Johns Hopkins University (IACUC), and all experiments were conducted according to NIH guidelines. T cell deficient athymic male mice (B6.Cg-Foxn1^nu, nu/nu) and their C57BL/6 wild type male littermates (6-8 wks, weighing 20-25 g) were purchased from The Jackson Laboratory (Bar Harbor, Me., USA). The two main defects of T cell deficient mice homozygous for the nu/nu spontaneous mutation (Foxn/nu, formerly Hfh11nu) are the abnormal hair growth and defective development of the thymus. Consequently, homozygous nu/nu mice lack T cells and cell-mediated immunity. Genetically matched wild type male littermates were used as controls and as donors of T cells adoptive transfer. CD4-deficient mice (B6.129S2-Cd4tm1Mak), CD8-deficient mice (B6.129S2-Cd8atm1Mak) and their wild type littermates were also purchased from The Jackson Laboratory. Mice were held under pathogen-free conditions in JHMI animal facility with air conditioning, 14 hr/10 hr of light and dark cycle and were free access to food and water during the experiments.
as §1
Data are expressed as mean±standard error of mean (SEM) and are compared by unpaired, two-tailed Student t tests for single comparison or by ANOVA Post Hoc test for multiple comparison. Kaplan-Meier analysis was used for mice survival analyses. Statistical significance of difference was defined when the P-value was less than 0.05.

[2] = tested on: IL-1β, KC, IFN-γ and TNF-α in the mouse kidney; assay: Kidney cytokine protein array after cisplatin; type: in vivo
Protocol: as §1
In order to examine pro-inflammatory molecules generated by cisplatin, protein levels of IL-1β, IFN-γ, TNF-α and KC was measured in the mice kidney by using Bio-Rad Bio-Plex™ multiple cytokines array technique (Bio-Rad Laboratories Inc., Hercules, Calif.) described elsewhere in depth (19) with a simplified small template containing only above four cytokine/chemokines. Briefly, snap frozen kidney tissues were homogenized in a kit-attached cell-lysis buffer, and the homogenates were centrifuged at 12,000 rpm for 15 min at 4° C. Total protein concentration in each supernatant was determined by using a Bio-Rad Protein Assay I(it, and was adjusted to 500 μg/ml with the cell lysis buffer. Each sample was first incubated with a mixture of all types of micro-beads for 90 min at room temperature (RT) followed by an incubation with biotinylated detection antibodies for 30 min and then with a strepavidin-coupled phycoerythrin for 10 min (RT). Finally, the samples were subjected to a flow cytometric system. All acquired data was analyzed using Bio-Plex Manager™ 3.0 software (Bio-Rad) and corrected by total protein concentration (pg/mg protein).

[3] = tested on: CD3 positive cells in mice kidney; assay: Immunohistochemical staining of T cells (CD3) in post cisplatin kidneys; type: in vivo, mouse; details: wild type mice
Protocol: as §1
In order to evaluate T cell infiltrating into post cisplatin kidneys as a potential mechanism of action, immunohistochemical staining for T cell was performed on formalin-fixed kidney tissue. Briefly, after deparaffinization and rehydration, kidney sections were immersed in 3% hydrogen peroxide methanol for 5 minutes to block endogenous peroxidase. […] All cisplatin kidney sections were examined by a pathologist and a nephrologist in a blinded fashion, and CD3 positive cells were counted in at least 10 cortico-medulary fields.

[4] = tested on: wild type, nu/nu, CD4-/- and CD8-/- mice; assay: Assessment of renal function (serum creatinine) after cisplatin; type: in vivo, mouse
Protocol: as §1
Blood samples were obtained from mice tails prior to (0 hr) and at 24 hr, 48 hr and 72 hr after cisplatin injection. Serum creatinine was measured as a marker of renal dysfunction by a Roche Cobas Fara automated system (Roche, Nutley, N.J., USA) using a Creatinine 557 kit (Sigma Diagnostics, St. Louis, Mo., USA).

[5] = tested on: renal myeloperoxidase (MPO) activity; assay: Kidney myeloperoxidase assay after cisplatin; type: in vivo, mouse; details: 72 hr after cisplatin
Protocol: Renal myeloperoxidase (MPO) activity was measured as described by Laight et al. (18) in the nu/nu mice and wild type mice at 72 hr after receiving cisplatin to semi-quantify neutrophils and macrophages infiltration. Briefly, kidney tissue was homogenized in a solution containing 0.5% (wt/vol) hexadecyltrimethylammonium bromide dissolved in 50 mM potassium phosphate buffer (pH 6.0) and centrifuged for 30 min at 20,000 g at 4° C. Samples were incubated in a water bath at 60° C. for 2 hr and then centrifuged at 4,000 g for 12 min. The collected supernatant (40 μl) in each sample was incubated with 160 μl of a reaction solution containing 1.6 mM tetramethylbenzidine and 3 mM H2O2 diluted in 80 mM phosphate buffer (pH 5.4) in a 96-well microplate. The rate of change in absorbance at 630 nm over 5 min was measured spectrophotometrically. MPO activity was expressed as absorbance changed per minute per 100 mg of wet tissue.

patients = details: after a single dose of cisplatin; cited from earlier work
[6] = wild type mice, 72 hr after cisplatin injection

N.N.[Cl][Pt][Cl] [cisplatin, cis-diamminedichloroplatinum II]
renal tubular injury score (mice kidneys; nu/nu mice): 0.22±0.08
renal tubular injury score (mice kidneys; wild type mice): 1.44±0.15
survival rate ([1]; C57BL/6 wild type littermates of nu/nu mice): 58%
survival ([1]; CD4-/- mice, cisplatin 40 mg/kg i.p.): 100%
mice died by 72 hr after cisplatin treatment ([1]; CD4 deficient mice, cisplatin 40 mg/kg i.p.): 0/6
survival ([1]; CD8-/- mice, cisplatin 40 mg/kg i.p.): 80%
mice died by 72 hr after cisplatin treatment ([1]; CD8 deficient mice, cisplatin 40 mg/kg i.p.): 1/6
survival rate ([1]; nu/nu (T cell deficient) mice): 100%
survival ([1]; nu/nu mice with T cells transfer, cisplatin 40 mg/kg): 80%
mice dead by 72 hr after injection ([1]; nu/nu mice, cisplatin 40 mg/kg i.p.): 0/12
survival ([1]; wild type littermates of CD4-/- and CD8-/- mice, cisplatin 40 mg/kg i.p.): 50%
mice died by 72 hr after cisplatin treatment ([1]; wild type littermates of CD4/CD8 deficient mice, cisplatin 40 mg/kg i.p.): 7/12
mice dead by 72 hr after injection ([1]; wild type littermates of nu/nu mice, cisplatin 40 mg/kg i.p.): 6/14
expression of pro-inflammatory molecules (IL-1β, KC, TNF-α) in the kidney ([2]; nu/nu mice treated with cisplatin compared to wild type mice): reduced expression
renal IFN-γ protein levels ([2]; wild type and nu/nu mice, any time point (24 hr, 72 hr) after cisplatin): no increase
renal IL-1β protein level [2, 6]: 53.43±2.61 pg/mg protein
renal KC protein level [2, 6]: 338.30±27.04 pg/mg protein
renal TNF-α protein level [2, 6]: 707.40±66.28 pg/mg protein
CD3 positive cells in the kidney ([3]; as early as 1 hr post cisplatin, vs saline): markedly increased
time of peak of kidney T cell increase ([3]; single dose of cisplatin, declined by 24 hr): 12 h
SCr ([4]; CD4-/- mice, 24 hr post cisplatin 40 mg/kg i.p.): 0.50 ± 0.07 mg/dL
SCr ([4]; CD8-/- mice, 24 hr post cisplatin 40 mg/kg i.p.): 0.67 ± 0.08 mg/dL
serum creatinine ([4]; nu/nu mice alone, 72 hr after cisplatin 40 mg/kg): 0.58 ± 0.06 mg/dL
serum creatinine ([4]; nu/nu mice transferred with T cells, 72 hr after cisplatin 40 mg/kg): 1.23 ± 0.11 mg/dL
serum creatinine ([4]; nu/nu mice, 24 hr after cisplatin 40 mg/kg): 0.60 ± 0.05 mg/dL
serum creatinine ([4]; nu/nu mice, 48 hr after cisplatin 40 mg/kg): 0.56 ± 0.05 mg/dL
serum creatinine ([4]; wild type mice, 24 hr after cisplatin 40 mg/kg (nu/nu study)): 1.05 ± 0.11 mg/dL
SCr ([4]; wild type mice, 24 hr post cisplatin 40 mg/kg i.p. (CD4/CD8 study)): 1.74 ± 0.25 mg/dL
serum creatinine ([4]; wild type mice, 48 hr after cisplatin 40 mg/kg): 2.09 ± 0.49 mg/dL
serum creatinine ([4]; wild type mice, 72 hr after cisplatin 40 mg/kg): 3.61 ± 0.32 mg/dL
increase in renal MPO activity ([5]; nu/nu mice compared with wild type mice): significantly blunted
renal MPO activities ([5]; wild type and nu/nu mice, vs individual saline controls): significant increase
patients who developed renal dysfunction (patients): 25-30%
